In paper PMC4468427, “Antiviral activity of silymarin against chikungunya virus” (Scientific Reports, 2015):
In brackets after ≈: the same amount, converted by molar mass. Entries after “also recorded” stand apart in the source; their conditions may differ. Like-named read-outs stand apart in the source and are kept apart here.

Key:
Vero cells = test: MTS cytotoxicity assay on Vero cells; details: Vero cells, MTS assay, 2 days; more than 95% of treated cells viable
[1] = MTS cytotoxicity assay on Vero cells; details: African green monkey
CHIKV [2] = test: Post-entry virus yield assay, CHIKV RNA copy number by qRT-PCR; details: for Inhibitory effect against CHIKV replication (RNA copy number): virus yield assay, qRT-PCR, Vero cells
BHK-21 cells = test: MTS cytotoxicity assay on BHK-21 cells; details: BHK-21 cells, MTS assay, 2 days; more than 95% of treated cells viable
[3] = MTS cytotoxicity assay on BHK-21 cells; details: hamster
CHIKV [4] = test: Primary screening: CPE inhibition assay (confirmed by MTS) in CHIKV-infected Vero cells; details: for Antiviral activity in CPE inhibition and MTS assays: MOI = 1, 48 h; for CPE inhibitory activity: highest concentrations (tested as high as 200 μg/ml), MOI = 1, 48 hpi
CHIKV replicon = test system: CHIKV replicon; design: method as in PMID 22205980; details: previous study, cited from earlier work

## O=c1c(O)c(-c2ccc(O)c(O)c2)oc2cc(O)cc(O)c12 [Quercetin]
Vero cells
  MNTD (maximum non-toxic dose): >400 µg/mL
[1]
  CC50 at 48 h: > 1000 µg/mL
CHIKV [2]
  Inhibitory effect against CHIKV replication (RNA copy number): neither kaempferol nor quercetin showed any significant inhibitory effect; also recorded: no significant inhibitory effect
BHK-21 cells
  MNTD (maximum non-toxic dose): >500 µg/mL
[3]
  CC50 at 2 days: > 800 µg/mL
CHIKV [4]
  Antiviral activity in CPE inhibition and MTS assays: neither kaempferol nor quercetin showed significant antiviral activity
  CPE inhibitory activity: 25%

## O=c1c(O)c(-c2ccc(O)cc2)oc2cc(O)cc(O)c12 [Kaempferol]
Vero cells
  MNTD (maximum non-toxic dose): >400 µg/mL
[1]
  CC50 at 48 h: > 1000 µg/mL
CHIKV [2]
  Inhibitory effect against CHIKV replication (RNA copy number): neither kaempferol nor quercetin showed any significant inhibitory effect; also recorded: no significant inhibitory effect
BHK-21 cells
  MNTD (maximum non-toxic dose): >200 µg/mL
[3]
  CC50 at 2 days: 537 µg/mL (≈ 1880 µM)
CHIKV [4]
  Antiviral activity in CPE inhibition and MTS assays: neither kaempferol nor quercetin showed significant antiviral activity
  CPE inhibitory activity: 25%

## COc1cc(C2Oc3cc([C@H]4Oc5cc(O)cc(O)c5C(=O)[C@@H]4O)ccc3OC2CO)ccc1O (stereo partly shown) [Silybin]
CHIKV replicon; converted from μM
  IC50: approximately 30 μg/ml
CHIKV replicon; read-out: IC50
  IC50: 59.8 µM
Vero cells
  MNTD (maximum non-toxic dose): >50 µg/mL
[1]
  CC50 at 48 h: > 200 µg/mL
CHIKV [2]; Chikungunya virus, Vero
  IC50: 69.7 µg/mL (≈ 144 µM)
